According to patent US20210137961A1, “Compositions and Methods for Treating Dry Eye Diseases” (priority 2017, published 2021):
Converted amounts (≈) assume the structure as drawn.

Columns and labels:
[1] = system: phagocytized L. monocytogenes; type: cell-based
[2] = MIC in the presence of serum; type: cell-based; details: 10% serum
[3] = system: L. monocytogenes and S. aureus; assay: Antibacterial activity at acidic pH compared with Azi; type: cell-based; details: including L. monocytogenes and S. aureus
MSSA = assay: MIC against MSSA (31 species); type: cell-based
Chlamydia trachomatis = assay: MIC against Chlamydia trachomatis; type: cell-based; details: N 10
Streptococcus pyogenes = assay: MIC against Streptococcus pyogenes; type: cell-based
Streptococcus pneumoniae = assay: MIC against Streptococcus pneumoniae; type: cell-based
P. acnes = assay: MIC against P. acnes; type: cell-based
[4] = system: Immortalized human meibomian gland epithelial cells (HMGECs); assay: HMGEC lysosome and neutral lipid accumulation, differentiation and proliferation; type: cell-based
Protocol: EXAMPLE. Immortalized human meibomian gland epithelial cells (HMGECs) are cultured in the presence of vehicle or test compound, such as Soli (2, 10, or 20 μg/ml) for 1 to 7 days under proliferating (keratinocyte serum-free medium; KSFM) or differentiating (DMEM/F12 plus 10% fetal bovine serum) conditions. A positive control (epidermal growth factor and bovine pituitary extract for proliferation; Azi for differentiation) and a negative control (media only) are included with the experiments. Additional details are described in JAMA Ophthalmol 132(2): 226-228 (Feb. 1, 2014) and Current Eye Research, 1-6 (2017), each of which is incorporated herein by reference.
HMGECs are evaluated for cell number, neutral lipid content (LipidTox) and lysosome accumulation (LysoTracker). […] Strong lysosomal effects are observed with the 10 μg/ml dose of Soli (relative stimulation=30), on the first day of dosing, and those effects are statistically different (p<0.01) from the control group (relative stimulation=13). In contrast, the 10 μg/m1Azi dose is not statistically different from the control group (relative stimulation=18) until day 3. […] Compounds described herein, such a Soli, affect lysosome and lipid accumulation and differentiation of HMGECs. The effect of Soli on lysosome appearance is faster than that of Azi.

Mycobacterium avium = assay: MIC against Mycobacterium avium; type: cell-based; details: N 30
Streptococcus mitis = assay: MIC against Streptococcus mitis; type: cell-based; details: N 73
Listeria monocytogenes = assay: MIC against Listeria monocytogenes; type: cell-based; details: N 10
Moraxella catarrhalis = assay: MIC against Moraxella catarrhalis; type: cell-based; details: N 21
Streptococcus agalactiae = assay: MIC against Streptococcus agalactiae; type: cell-based; details: N 535
CA-MRSA = assay: MIC against CA-MRSA; type: cell-based, Staphylococcus aureus; details: N 30
phospholipase = assay: Phospholipase inhibition in other cell lines; type: cell-based
Mycoplasma pneumoniae = assay: MIC against Mycoplasma pneumoniae; type: cell-based
Staphylococcus aureus = assay: MIC against Staphylococcus aureus; type: cell-based; details: N 201
H. influenzae = assay: MIC against H. influenzae (30 species); type: cell-based
Haemophilus influenzae = assay: MIC against Haemophilus influenzae; type: cell-based
[5] = system: Haemophilus parainfluenzae; assay: MIC against Haemophilus parainfluenzae; type: cell-based; details: N 11
[6] = system: Viridans group streptococci; assay: MIC against Viridans group streptococci; type: cell-based; details: N 51
[7] = Streptococcus pyogenes (a), N 407
[8] = Streptococcus pneumoniae, N 150

With CC[C@H]1OC(=O)[C@@](C)(F)C(=O)[C@H](C)[C@@H](O[C@@H]2O[C@H](C)C[C@H](N(C)C)[C@H]2O)[C@](C)(OC)C[C@@H](C)C(=O)[C@H](C)[C@H]2N(CCCCn3cc(-c4cccc(N)c4)nn3)C(=O)O[C@]12C [Solithromycin, solithromycin] the “activity against phagocytized bacteria, fold greater” value [1] was 50-100 fold, the “potency relative to azithromycin” value ([1]; phagocytized L. monocytogenes) was 50 fold and the “change in MIC in the presence of serum” value [2] was 2 fold. The “activity at acidic pH relative to Azi” value [3] was 100-200 fold, the “I = intermediate susceptibility” value (MSSA) was 0% and the MIC50 (MSSA) was 15 ng/mL (≈ 17.8 nM). For the same compound, the MIC90 (MSSA) was 30 ng/mL (≈ 35.5 nM), the “MIC Range” value (MSSA) was 4 to 64000 ng/mL and the “NS = not susceptible” value (MSSA) was 6%. The “S = susceptible” value (MSSA) was 94%, the MIC50 (Chlamydia trachomatis) was 250 ng/mL (≈ 296 nM) and the MIC90 (Chlamydia trachomatis) was 250 ng/mL (≈ 296 nM). For the same compound, the “MIC Range” value (Chlamydia trachomatis) was 125 to 500 ng/mL, the MIC90 (Streptococcus pyogenes; Streptococcus Pyogenes (100 strains)) was 30 ng/mL (≈ 35.5 nM) and the MIC50 (Streptococcus pyogenes; [7]) was no more than 30 ng/mL. The MIC90 (Streptococcus pyogenes; [7]) was no more than 30 ng/mL, the “MIC Range” value (Streptococcus pyogenes; [7]) was ≤0.03-0.5 ^ μg/mL and the MIC50 (Streptococcus pyogenes; Streptococcus pyogenes, N 407) was no more than 30 ng/mL. The MIC90 (Streptococcus pyogenes; Streptococcus pyogenes, N 407) was no more than 30 ng/mL, the “MIC Range” value (Streptococcus pyogenes; Streptococcus pyogenes, N 407) was ≤0.03-0.5 ^ μg/mL and the MIC90 (Streptococcus pneumoniae; Streptococcus Pneumoniae (150 strains)) was 250 ng/mL (≈ 296 nM). For the same compound, the MIC50 (Streptococcus pneumoniae; [8]) was 15 ng/mL (≈ 17.8 nM), the MIC90 (Streptococcus pneumoniae; [8]) was 250 ng/mL (≈ 296 nM) and the “MIC Range” value (Streptococcus pneumoniae; [8]) was no more than 8 to 500 ng/mL. The “MIC 50%” value (P. acnes; P. acnes) was 15 ng/mL (≈ 17.8 nM), the “MIC 90%” value (P. acnes; P. acnes (51 species)) was 60 ng/mL (≈ 71 nM) and the “MIC Range” value (P. acnes; P. acnes (51 species)) was no more than 2 to 250 ng/mL. The “lysosomal effects, relative stimulation” value ([4]; 10 μg/ml dose, first day of dosing, LysoTracker) was 30, the “accumulation of neutral lipids and lysosomes in HMGECs” value ([4]; 2, 10 or 20 μg/ml, 1 to 7 days) was “rapid and dose-dependent increase” and the “proliferation of HMGECs” value ([4]; 7-day dosing period) was “does not cause unwanted proliferation”. For the same compound, the MIC50 (Mycobacterium avium) was 1000 ng/mL (≈ 1180 nM), the MIC90 (Mycobacterium avium) was 1000 ng/mL (≈ 1180 nM) and the “MIC Range” value (Mycobacterium avium) was 1000 ng/mL (≈ 1180 nM). For the same compound, the MIC50 (Streptococcus mitis) was no more than 30 ng/mL, the MIC90 (Streptococcus mitis) was 60 ng/mL (≈ 71 nM) and the “MIC Range” value (Streptococcus mitis) was ≤0.03-0.25^ μg/mL. The MIC50 (Listeria monocytogenes) was 30 ng/mL (≈ 35.5 nM), the MIC90 (Listeria monocytogenes) was 30 ng/mL (≈ 35.5 nM) and the “MIC Range” value (Listeria monocytogenes) was 30 ng/mL (≈ 35.5 nM). For the same compound, the MIC50 (Moraxella catarrhalis) was 120 ng/mL (≈ 142 nM), the MIC90 (Moraxella catarrhalis) was 120 ng/mL (≈ 142 nM) and the “MIC Range” value (Moraxella catarrhalis) was no more than 8 to 500 ng/mL. For the same compound, the MIC50 (Streptococcus agalactiae) was no more than 30 ng/mL, the MIC90 (Streptococcus agalactiae) was no more than 30 ng/mL and the “MIC Range” value (Streptococcus agalactiae) was ≤0.03-0.5 ^ μg/mL. For the same compound, the MIC50 (CA-MRSA) was 120 ng/mL (≈ 142 nM), the MIC90 (CA-MRSA) was 120 ng/mL (≈ 142 nM) and the “MIC Range” value (CA-MRSA) was 60 to 120 ng/mL. For the same compound, the “reversibility of phospholipase inhibition” value (phospholipase; after dosing is stopped) was “rapidly reversible”, the IC50 (phospholipase; other cell lines, read-out: IC50 for phospholipase inhibition) was 100 µM and the MIC90 (Mycoplasma pneumoniae; Mycoplasma pneumoniae (38 strains)) was 0.125 ng/mL (≈ 0.148 nM). For the same compound, the MIC50 (Mycoplasma pneumoniae; Mycoplasma pneumoniae, N 38) was 0.032 ng/mL (≈ 0.0379 nM), the MIC90 (Mycoplasma pneumoniae; Mycoplasma pneumoniae, N 38) was 0.125 ng/mL (≈ 0.148 nM) and the “MIC Range” value (Mycoplasma pneumoniae; Mycoplasma pneumoniae, N 38) was no more than 6.3e-05 to 500 ng/mL. The MIC50 (Staphylococcus aureus) was 120 ng/mL (≈ 142 nM), the MIC90 (Staphylococcus aureus) was greater than 16000 ng/mL and the “I = intermediate susceptibility” value (H. influenzae) was 0%. The MIC50 (H. influenzae) was 2000 ng/mL (≈ 2370 nM), the MIC90 (H. influenzae) was 2000 ng/mL (≈ 2370 nM) and the “MIC Range” value (H. influenzae) was 1000 to 4000 ng/mL. For the same compound, the “NS = not susceptible” value (H. influenzae) was 0%, the “S = susceptible” value (H. influenzae) was 100% and the MIC90 (Haemophilus influenzae; Haemophilus influenzae (100 strains)) was 2000 ng/mL (≈ 2370 nM). For the same compound, the MIC50 (Haemophilus influenzae; Haemophilus influenzae, N 100) was 1000 ng/mL (≈ 1180 nM), the MIC90 (Haemophilus influenzae; Haemophilus influenzae, N 100) was 2000 ng/mL (≈ 2370 nM) and the “MIC Range” value (Haemophilus influenzae; Haemophilus influenzae, N 100) was 120 to 4000 ng/mL. The MIC50 [5] was 2000 ng/mL (≈ 2370 nM), the MIC90 [5] was 2000 ng/mL (≈ 2370 nM) and the “MIC Range” value [5] was 1000 to 2000 ng/mL. For the same compound, the MIC50 [6] was no more than 8 ng/mL, the MIC90 [6] was 60 ng/mL (≈ 71 nM) and the “MIC Range” value [6] was ≤0.008-0.12 ^ μg/mL.
